In article PMC7822874, “Chemoprotective antimalarials identified through quantitative high-throughput screening of Plasmodium blood and liver stage parasites” (Scientific Reports, 2021) one finds AC50 data, which are given here for 53 molecules.

SMILES strings stand for the structures.

As usually defined, the AC50 is the concentration giving half of the maximal activity seen.

The test system of one test is Plasmodium falciparum Dd2 asexual blood stage parasites. Description: microbe, parasite or virus in culture. On the set-up: species or system Plasmodium falciparum Dd2 in human erythrocytes; single determination (one 11-point concentration-response curve). The note with it: Plasmodium falciparum, DD2, Erythrocyte, 72 h.
The molecule `Cc1cccc(OC(C)C(=O)NCC2(N(C)C)CCCCC2)c1C` (centres unmarked) [NCGC00118727-01] gave an AC50 of 8.41 µM.

Still in this test, the particulars now being: Plasmodium falciparum, DD2, Erythrocyte, 72 h; read-out: AC50.
On to `COc1cccc(Nc2ccc3c(n2)C(C)(C(=O)N2CCN(C)CC2)CN(C)C3)c1` (centres unmarked) [NCGC00414535-01], for which the AC50 came to 15.3 µM.
Same read-out and setting: the result for `CCOC(=O)c1sc(NC(=O)c2nc3ncccn3n2)c(C(=O)OC(C)C)c1C` [NCGC00141358-01] reads 2.66 µM; that for `Cc1cc(Nc2cc(Cl)cc(Cl)c2)nc(N)n1` [MLS000861564-01], 6.68 µM.
In the case of `CC(C)C[C@@]12C(=O)N(c3cccc(Br)c3)C(=O)N1[C@H](c1ccc(F)cc1)[C@@H]1C(=O)N(C3CCCCC3)C(=O)[C@@H]12` [MLS001074979-01], the AC50 amounted to 7.5 µM.
The same measure, in the same setting: under `Cc1nn(-c2ccccc2)c2c1C(O)n1c(nc3ccccc31)S2` (centres unmarked) [MLS000081954-01] stands 5.31 µM; under `COc1ccc(S(=O)(=O)N2CCN(/C(S)=N/CC3CCCO3)CC2)cc1OC` (centres unmarked) [MLS001035648-01], 6.68 µM.
For `CCOC(=O)c1ccccc1NC(=O)C(C)Oc1ccccc1` (centres unmarked) [MLS000109889-01], the AC50 turned out to be 10.6 µM.
With `CCCN1CCN(CCCNC(=O)c2ccc3c(c2)sc2nc(-c4ccc(OC)cc4)cn23)CC1` [NCGC00121829-01], the AC50 was 4.73 µM.
Turning to `Clc1ccc(NNc2ccnc3cc(Cl)ccc23)cc1` [MLS000537447-01], the AC50 came to 1.5 µM.
As for `CN1CCC2(CC1)CN(C(=O)CCc1ccccc1)Cc1ccccc1O2` [NCGC00456463-01], the AC50 was 6.68 µM.
Regarding `CN1CCCC1CCNS(=O)(=O)c1ccc(Br)cc1` (centres unmarked) [MLS000549971-01], the AC50 was found to be 5.96 µM.
Regarding `COc1ccc2cc1Nc1ccc(cc1)C[C@H](NC(=O)Cc1cccc(Cl)c1)C(=O)N(C)[C@H](C(=O)NCCOc1ccccc1)C2` [NCGC00410283-01], the AC50 was found to be 7.5 µM.
For the molecule `COc1cc2nc(NCc3ccccc3Cl)n3nc(-c4cccnc4)nc3c2cc1OC` [NCGC00112532-01], the AC50 stood at 2.11 µM.
On the same count and under the same terms, the result for `O=C(NCCc1c[nH]c2ccccc12)C(=O)Nc1cc2c3c(c1)CC(=O)N3CCC2` [MLS001361834-01] reads 10.6 µM.
In the case of `Cc1ccc2nc(-c3ccccc3O)c(Nc3ccccc3C)n2c1` [NCGC00106804-01], the AC50 came to 2.37 µM.
As to `CC(C)Cn1c(-c2ccco2)nc2c(c(=O)c3ccccc3n2C)c1=O` [MLS000331990-01], the AC50 was determined as 9.44 µM.
Same read-out and setting: the result for `COc1cc(C#Cc2c(-c3cncn3C)n(C)c3ccc(-c4ccc(OC)c(OC)c4)cc23)cc(OC)c1` [MLS002391599-01] reads 4.73 µM.
Consider `COc1ccc(-c2ccccc2NC(=O)C2CCCN(Cc3c(O)cccc3OC)C2)cc1` (centres unmarked) [NCGC00425458-01], for which the AC50 was determined as 2.11 µM.
On the same count and under the same terms, under `c1ccc(Nc2cc3c(cn2)CN(Cc2ccsc2)CCN3)cc1` [NCGC00411091-01] stands 13.7 µM; under `CCOc1ccc(CN(CCc2ccc3c(c2)OCO3)Cc2cc(OC)ccc2O)cc1` [NCGC00101752-01], 0.668 µM; under `CC(C)CNc1nnnc2c1sc1nc(N3CCOCC3)c3c(c12)CCCC3` [MLS000779378-01], 15 µM.
On to `O=c1cc(-c2ccccc2)c2ccc3c(c2o1)CN(Cc1cccc(Cl)c1)CO3` [NCGC00116370-01], for which the AC50 was 0.841 µM.
With `CCOc1ccc(CN2C(=O)c3ccccc3Sc3ccc(C(=O)N4CCC5(CC4)OCCO5)cc32)cc1` [NCGC00108218-01], the AC50 came to 4.22 µM.
On to `c1cc(-c2noc([C@@H]3Cc4[nH]cnc4CN3CC3CCCCC3)n2)ccn1` [NCGC00394653-01], for which the AC50 came out at 21.7 µM.
The same measure, in the same setting: under `C=CCCC(CN1CCCC1)Oc1ccc(C(=O)N2CCCC2)cn1` (centres unmarked) [NCGC00435125-01] stands 13.3 µM.
As for `COc1ccc2c(c1)C=C([C@@H]1C[C@H]3CN(c4ccccc4)C(=O)[C@]34CCCN14)CO2` [MLS000734809-01], the AC50 is 0.944 µM.
The same measure, in the same setting: the result for `Cc1cc(Nc2ccc(C(C)C)cc2)n2ncnc2n1` [MLS000116597-01] reads 4.22 µM.
As for `CCN(CC)CC(O)COc1ccccc1C(=O)CCc1ccccc1` (centres unmarked) [MLS000107538-01], the AC50 was 1.5 µM.
Turning to `CC1CCN(C(=O)C[C@@H]2c3nc(NC(=O)c4cccc(F)c4)sc3C[C@@H]3[C@](C)(CO)[C@H](O)CC[C@]32C)CC1` [NCGC00394310-01], the AC50 worked out at 10.6 µM.
Regarding `Cn1cnc2ccc(-c3cccc(O)c3)nc2c1=O` [NCGC00414672-01], the AC50 was found to be 6.11 µM.
As for `Cc1cc(C(=O)CN2C(=O)NC(c3ccccc3)(c3ccccc3)C2=O)c(C)n1Cc1ccco1` [MLS000056256-01], the AC50 is 8.41 µM.
As to `Cc1nc2cc(F)ccc2n1C1CCN(C(=O)c2c(F)cccc2F)CC1` [MLS000710077-01], the AC50 is 5.96 µM.
Regarding `COc1cc(O)c(C(CCN2CCOCC2)c2ccc3c(c2)OCO3)c(OC)c1` (centres unmarked) [MLS000879477-01], the AC50 worked out at 4.22 µM.
For the molecule `Cc1ccc(C2=CC(c3ccc(Cl)cc3)n3nc(-c4ccc(C)cc4)nc3N2)cc1` (centres unmarked) [NCGC00105128-01], the AC50 was determined as 1.68 µM.
Consider `COc1ccc(N2CCN(c3oc(/C=C/c4cc(OC)c(OC)c(OC)c4)nc3C#N)CC2)cc1` [NCGC00116464-01], for which the AC50 was 2.66 µM.
As to `Cc1ccc(Nc2cc(C)nn2-c2nc(C)cc(C)n2)cc1` [MLS000048464-01], the AC50 worked out at 6.68 µM.
The same measure, in the same setting: the result for `CCOC(=O)c1ccc2c(c1)N(CC(=O)N(C)c1ccccc1)C(=O)c1ccccc1S2` [NCGC00132027-01] reads 10.6 µM; that for `CNC(=O)CCn1ncc2cc(OCc3ccccc3-c3ccc(OC)cc3Cl)ccc21` [NCGC00418132-01], 16.8 µM.
With `COc1ccccc1CNC[C@H]1O[C@H](Cc2cc(CN(C)Cc3ccccc3)on2)CC[C@@H]1O` [NCGC00393289-01], the AC50 was found to be 2.99 µM.
Regarding `Cc1ccc([S+](=O)([O-])c2nc([S+](=O)([O-])c3ccccc3)sc2NCCCOC(C)C)cc1` [NCGC00116818-01], the AC50 stood at 0.596 µM.
Regarding `Cc1ccccc1-n1c(=C(C#N)C(=O)Nc2ccccc2)sc(=Cc2ccco2)c1=O` [MLS000081502-01], the AC50 was found to be 5.31 µM.
On the same count and under the same terms, the result for `CCN(C(=O)CSc1nc(-c2ccc(C(C)C)cc2)no1)c1cccc(C)c1` [NCGC00127902-01] reads 1.06 µM.
On the same count and under the same terms, the result for `COc1cccc(NC(=O)c2sc3nc(C)c(C(=O)Nc4ccc(C)cc4C)c(-c4ccccc4Cl)c3c2N)c1` [NCGC00104946-01] reads 2.66 µM; that for `O=C1Nc2ccccc2C12Nc1ccccc1-c1nc3ccccc3n12` (centres unmarked) [MLS000051512-01], 6.68 µM; that for `CN(C)c1cccc(Nc2cc3c(cn2)CN(Cc2ccccc2)CCN3)c1` [NCGC00411230-01], 13.7 µM.
For the molecule `Cc1nn(-c2ccccc2)c2c1C(c1cccnc1)N1C=C(S(=O)(=O)N3CCCCC3)C=CC1=N2` (centres unmarked) [MLS000863363-01], the AC50 was 15 µM.
For the molecule `COc1ccc(C(O)(CCC(C)C)C(CN2CCOCC2)c2ccccc2)cc1` (centres unmarked) [MLS001198958-01], the AC50 came out at 5.31 µM.
For the molecule `COc1ccccc1Nc1cnc2ccc(-c3ccc(F)cc3)nn12` [NCGC00412490-01], the AC50 came to 6.85 µM.
`O=C(Nc1ccncc1)Nc1ccc(Cl)cc1` [MLS001224591-01]: the AC50 was 10.6 µM.
Same read-out and setting: the result for `CCOC(=O)c1ccccc1NC1c2ccccc2C(=O)N1C1CCN(C(=O)OCC)CC1` (centres unmarked) [MLS000878310-01] reads 13.3 µM; that for `CCCNC(=O)N1CC(Oc2cccc(-c3nc(-c4ccccc4)no3)c2)C1` [NCGC00441277-01], 13.3 µM; that for `CCOC(=O)c1c(N)sc2c1CCN(Cc1ccccc1)C2` [NCGC00159451-02], 5.31 µM.
